This is an account of results in patent US20070149508A1, “Six membered heteroaromatic inhibitors targeting resistant kinase mutations” (TargeGen, Inc., priority 2005, published 2007).

Where a name gives a salt, the structure may show the parent alone.

One assay concerns the target T1, Abl (T315I) (Homo sapiens, UniProt P00519, T315I).
T1 construct: purchased Upstate
The assay can be described thus: Abl (T315I) Kinase Assay (KinaseGlo luminescent detection of residual ATP). The note with it: Abl (T315I) IC50 (nM), Abl (T315I) (Upstate, 17 ng/well), Abltide 100 uM, ATP 500 nM, 60 minutes at 37° C. It is filed as biochemical. How it is done:
The assay was performed similarly to the Abl kinase assay. Abl (T315I) (Upstate, 17 ng/well); Abltide substrate (100 uM) and ATP (500 nM) comprised the reaction mixture. Compound was similarly diluted, and the reaction plate was incubated for 60 minutes at 37° C.
On the technique in general: Kinase-Glo measures the ATP left after a reaction by luminescence.

The target in the next assay is Abl kinase (Homo sapiens, UniProt P00519). The assay can be described thus: biochemical. The note with it: Abl IC50 (nM), Abl kinase (Invitrogen, 20 ng/well), Abltide 100 μM, ATP 500 nM, 37° C. for 60 minutes, top concentration 10 uM.

Take `N=C(N)c1cccc(/C=C/c2cnc(Nc3ccc(S(=O)(=O)C4CCNCC4)cc3)nc2)c1` [3-(2-{2-[4-(Piperidine-4-sulfonyl)-phenylamino]-pyrimidin-5-yl}-vinyl)-benzamidine]: the IC50 against Abl (T315I) was found to be 53000 nM; at Abl kinase, 3670 nM.

In the case of `Nc1nc2ccc(/C=C/c3cnc(Nc4ccc(S(=O)(=O)N5CCNCC5)c(NCCO)c4)nc3)cc2s1` [2-{[5-({5-[(E)-2-(2-amino-1,3-benzothiazol-6-yl)vinyl]pyrimidin-2-yl}amino)-2-(piperazin-1-ylsulfonyl)phenyl]amino}ethanol], the IC50 at Abl (T315I) was determined as 156 nM; on Abl kinase, 154 nM.

For the molecule `O=S(=O)(NCCN1CCCC1)c1ccc(Nc2ncc(/C=C/c3cc(O)ccc3F)cn2)cc1` [4-{5-[2-(2-Fluoro-5-hydroxy-phenyl)-vinyl]-pyrimidin-2-ylamino}-N-(2-pyrrolidin-1-yl-ethyl)-benzenesulfonamide], the IC50 came to 240 nM against Abl (T315I) and 25 nM against Abl kinase.

With `Nc1nc2ccc(/C=C/c3cnc(Nc4ccc(S(=O)(=O)N5CCC(NCCO)CC5)cc4)nc3)cc2s1` [2-[(1-{[4-({5-[(E)-2-(2-amino-1,3-benzothiazol-6-yl)vinyl]pyrimidin-2-yl}amino)phenyl]sulfonyl}piperidin-4-yl)amino]ethanol], the IC50 against Abl (T315I) stood at 146 nM; on Abl kinase it was 158 nM.

As for `COc1cccc(/C=C/c2cnc(Nc3ccc(S(=O)(=O)C4CCNCC4)cc3)nc2)c1` [{5-[2-(3-Methoxy-phenyl)-vinyl]-pyrimidin-2-yl}-[4-piperidine-4-sulfonyl)-phenyl]-amine], the IC50 against Abl (T315I) was found to be 664 nM; on Abl kinase it was 172 nM.

For `O=C(Nc1ccc(Cl)c(/C=C/c2cnc(Nc3ccc(S(=O)(=O)C4CCNCC4)cc3)nc2)c1)c1cccc(C(F)(F)F)c1` [N-[4-Chloro-3-(2-{2-[4-(piperidine-4-sulfonyl)-phenylamino]-pyrimidin-5-yl}-vinyl)-phenyl]-3-trifluoromethyl-benzamide], the results for the IC50 against Abl (T315I) and against Abl kinase were 2000 nM and 12 nM, respectively.

Take `O=S(=O)(c1ccc(Nc2ncc(/C=C/c3ccc(O)cc3)cn2)cc1)C1CCNCC1` [4-(2-{2-[4-(Piperidine-4-sulfonyl)-phenylamino]-pyrimidin-5-yl}-vinyl)-phenol]: the IC50 on Abl (T315I) came out at 32 nM; against Abl kinase, 15 nM.

`Cc1ccc(/C=C/c2cnc(Nc3ccc(S(=O)(=O)C4CCNCC4)cc3)nc2)c2cc[nH]c12` [5-((E)-2-(7-methyl-1H-indol-4-yl)vinyl)-N-(4-(piperidin-ylsulfonyl)phenyl)pyrimidin-2-amine Hydrochloride]: the IC50 at Abl (T315I) is 167 nM; at Abl kinase it was 58 nM.

As for `Nc1nc2ccc(/C=C/c3cnc(Nc4ccc([S+]([O-])CCN5CCOCC5)cc4)nc3)cc2s1` (stereo not drawn) [6-(2-{2-[4-(2-Morpholin-4-yl-ethanesulfinyl)-phenylamino]-pyrimidin-5-yl}-vinyl)-benzothiazol-2-ylamine], the values for the IC50 against Abl (T315I) and at Abl kinase were 283 nM and 272 nM, respectively.

For `O=S(=O)(NC1CCCNC1)c1ccc(Nc2ncc(/C=C/c3cccc(O)c3)cn2)cc1` (stereo not drawn) [4-{5-[2-(3-Hydroxy-phenyl)-vinyl]-pyrimidine-2-ylamino}-N-piperdin-3-yl-benzenesulfonamide Hydrochloride], the values for the IC50 on Abl (T315I) and against Abl kinase were 60 nM and 12 nM, respectively.

`O=C(Nc1nc2ccc(/C=C/c3cnc(Nc4ccc(S(=O)(=O)N5CCNCC5)cc4)nc3)cc2s1)c1cccc(C(F)(F)F)c1` [N-[6-(2-{2-[4-(Piperazine-1-sulfonyl)-phenylamino]-pyrimidin-5-yl]-vinyl)-benzothiazol-2-yI]-3-trifluoromethyl-benzamide]: the results for the IC50 against Abl (T315I) and against Abl kinase were 5600 nM and 5110 nM, respectively.

As for `O=S(=O)(NCCN1CCCC1)c1ccc(Nc2ncc(CCc3cc(O)ccc3Cl)cn2)cc1` [4-{5-[2-(2-Chloro-5-hydroxy-phenyl)-ethyl]-pyrimidin-2-ylamino}-N-(2-benzenesulfonamide hydrochloride], the IC50 against Abl (T315I) amounted to 805 nM; at Abl kinase, 5 nM.

Regarding `O=S(=O)(c1ccc(Nc2ncc(/C=C/c3cccc(C(F)(F)F)c3)cn2)cc1)C1CCNCC1` [5-(3-(trifluoromethyl)styryl)-N-(4-(piperidin-4-ylsulfonyl)phenyl)pyrimidin-2-amine. TFA], the IC50 against Abl (T315I) is 3200 nM; against Abl kinase, 565 nM.

Turning to `C=Cc1cnc(Nc2ccc(S(=O)(=O)C3CCNCC3)cc2)nc1` [N-(4-(piperidin-4-ylsulfonyl)phenyl)-5-vinylpyrimidin-2-amine trifluoroacetate], the IC50 against Abl (T315I) was found to be 368 nM; against Abl kinase, 1390 nM.

For the molecule `O=S(=O)(c1ccc(Nc2ncc(/C=C/c3ccc(C(F)F)cc3)cn2)cc1)C1CCNCC1` [5-(4-(difluoromethyl)styryl)-N-(4-(piperidin-4-ylsulfonyl)phenyl)pyrimidin-2-amine. Triflate], the values for the IC50 at Abl (T315I) and against Abl kinase were 1330 nM and 429 nM, respectively.

On to `O=S(=O)(c1ccc(Nc2ncc(/C=C/c3cc(Cl)cc4[nH]nnc34)cn2)cc1)N1CCNCC1` [[4-(Piperazine-1-sulfonyl)-phenyl]-{5-[2-(6-chloro-1H-benzotriazol-4-yl)-vinyl]-pyrimidin-2-yl}-amine], for which the IC50 on Abl (T315I) came out at 21 nM; against Abl kinase, 61 nM.

Take `O=S(=O)(NCCN1CCCC1)c1ccc(Nc2ncc(/C=C/c3cc(O)ccc3Cl)cn2)cc1` [4-{5-[2-(2-Chloro-5-hydroxy-phenyl)-vinyl]-pyrimidin-2-ylamino}-N-(2-pyrrolidin-1-yl-ethyl)-benzenesulfonamide]: the IC50 on Abl (T315I) was determined as 390 nM; against Abl kinase, 7.7 nM.

Turning to `CCNC(=O)N1CCC(S(=O)(=O)c2ccc(Nc3ncc(/C=C/c4ccc5nc(N)sc5c4)cn3)cc2)CC1` [4-(4-{5-[2-(2-Amino-benzothiazol-6-yl)-vinyl]-benzenesulfonyl)-piperidine-pyrimidin-2-ylamino)-1-carboxylic acid ethylamide], the IC50 against Abl (T315I) turned out to be 237 nM; on Abl kinase, 233 nM.

For the molecule `Cc1cccc(/C=C/c2cnc(Nc3ccc(S(=O)(=O)C4CCNCC4)cc3)nc2)c1` [5-(3-(methyl)styryl)-N-(4-(piperidin-4-ylsulfonyl)phenyl)pyrimidin-2-amine. TFA], the results for the IC50 against Abl (T315I) and against Abl kinase were 562 nM and 51 nM, respectively.

With `O=S(=O)(NCCCO)c1ccc(Nc2ncc(/C=C/c3cccc(O)c3)cn2)cc1` [4-{5-[2-(3-Hydroxy-phenyl)-vinyl]-pyrimidin-2-ylamino}-N-(3-hydroxy-propyl)-benzenesulfonamide], the results for the IC50 on Abl (T315I) and against Abl kinase were 112 nM and 8.9 nM, respectively.

As for `O=S(=O)(c1ccc(Nc2ncc(/C=C/c3ccc4[nH]ccc4c3)cn2)cc1)C1CCNCC1` [{5-[2-(1H-Indol-5-yl)-vinyl]-pyrimidin-2-yl}-[4-(piperidine-4-sulfonyl)-phenyl]-amine], the IC50 against Abl (T315I) was determined as 138 nM; on Abl kinase, 37 nM.

As for `O=C(Nc1cccc(/C=C/c2cnc(Nc3ccc(S(=O)(=O)C4CCNCC4)cc3)nc2)c1)c1cccc(C(F)(F)F)c1` [N-(3-((E)-2-(2-(4-(piperidin-4-ylsulfonyl)phenylamino)pyrimidin-5-yl)vinyl)phenyl)-3-(trifluoromethyl)benzamide Hydrochloride], the IC50 is 1280 nM on Abl (T315I) and 17 nM against Abl kinase.

For `CN1CCC(S(=O)(=O)c2ccc(Nc3ncc(/C=C/c4cccc5[nH]ncc45)cn3)cc2)CC1` [N-(4-(1-methylpiperidin-4-ylsulfonyl)phenyl)-5-((E)-2-(1H-indazol-4-yl)vinyl)pyrimidin-2-amine], the IC50 at Abl (T315I) turned out to be 2040 nM; against Abl kinase it was 32 nM.

Consider `CN1CCN(C(=O)c2ccc(Nc3ncc(/C=C/c4cccc5[nH]ccc45)cn3)cc2)CC1` [5-[(E)-2-(1H-indol-4-yl)vinyl]-N-{4-[(4-methylpiperazin-1-yl)carbonyl]phenyl}pyrimidin-2-amine], for which the values for the IC50 against Abl (T315I) and on Abl kinase were 852 nM and 41 nM, respectively.

`O=S(=O)(c1ccc(Nc2ncc(/C=C/c3cccc4[nH]ccc34)cn2)cc1)C1CCN(CCO)CC1` [2-(4-(4-(5-((E)-2-(1H-indol-4-yl)vinyl)pyrimidin-2-ylamino)phenylsulfonyl)piperidin-1-yl)ethanol Hydrochloride]: the IC50 against Abl (T315I) came to 202 nM; on Abl kinase, 8.4 nM.

Take `Nc1nc2ccc(/C=C/c3cnc(Nc4ccc(C(=O)N5CCNCC5)cc4)nc3)cc2s1` [(4-{5-[2-(2-Amino-benzothiazol-6-yl)-vinyl]-pyrimidin-2-ylamino}-phenyl)-piperazin-1-yl-methanone]: the IC50 against Abl (T315I) worked out at 87 nM; against Abl kinase it was 360 nM.

Turning to `O=S(=O)(NCCO)c1ccc(Nc2ncc(/C=C/c3cccc(O)c3)cn2)cc1N1CCNCC1` [N-(2-hydroxyethyl)-4-({5-[(E)-2-(3-hydroxyphenyl)vinyl]pyrimidin-2-yl}amino)-2-piperazin-1-ylbenzenesulfonamide trifluoroacetic acid salt], the IC50 against Abl (T315I) turned out to be 514 nM; at Abl kinase, 66 nM.

In the case of `C(=C\c1cccc2[nH]ccc12)/c1cnc(Nc2cccc(N3CCNCC3)c2)nc1` [{5-[2-(1H-Indol-4-yl)-vinyl]-pyrimidin-2-yl}-(3-piperazin-1-yl-phenyl)-amine], the IC50 was determined as 2600 nM on Abl (T315I) and 86 nM at Abl kinase.

In the case of `O=S(=O)(CCCN1CCCC1)c1ccc(Nc2ncc(/C=C/c3cccc4[nH]ncc34)cn2)cc1` [5-[(E)-2-(1H-indazol-4-yl)vinyl]-N-{4-[(3-pyrrolidin-1-ylpropyl)sulfonyl]phenyl}pyrimidin-2-amine], the values for the IC50 at Abl (T315I) and against Abl kinase were 124 nM and 3.9 nM, respectively.

For `O=S(=O)(c1ccc(Nc2ncc(/C=C/c3cccc(O)c3)cn2)cc1F)N1CCNCC1` [3-(2-{2-[3-Fluoro-4-(piperazine-1-sulfonyl)-phenylamino]-pyrimidin-5-yl}-vinyl)-phenol], the IC50 against Abl (T315I) was 266 nM; on Abl kinase, 56 nM.

One may read the IC50 as the midpoint of a concentration-inhibition curve.
